Tested on: Akt
Assay: Western blot of radiation-induced Akt phosphorylation in HUVEC
Type: cell-based, human
Conditions: HUVEC
From the text: HUVEC cells were obtained from Clonetics and were maintained in EBM-2 medium supplemented with EGM™-2MV SINGLEQUOTS® (Bio-Whittaker, Inc., Walkersville, Md., United States of America). An Eldorado-8 Cobalt-60 teletherapy unit (Atomic Energy of Canada Limited, Mississauga, Ontario, Canada) was used to irradiate endothelial cell cultures at a dose rate of 0.84 Gy per minute. Delivered doses ranging from 0 to 12 Gy were verified by use of thermoluminescence detectors.
In order to determine if Akt is phosphorylated in response to irradiation, cultured HUVEC cells were serum starved for 4 hours, exposed to irradiation, and the phosphorylation of Akt was examined in cell extracts by Western blotting. Total cellular protein was extracted after radiation treatment as follows. Cells were counted and then washed with iced-cold PBS twice before the addition of lysis buffer (M-PER™ mammalian protein extraction reagent; Pierce Chemical Company, Rockford, Ill., United States of America; or 20 mM Tris, 150 mM NaCl, 1 mM EDTA, 1% Triton X-100, 2.5 mM sodium pyrophosphate, 1 mM phenylmethylsulphonyl fluoride (PMSF), and […] Leupeptin (Roche Molecular Biochemicals, Indianapolis, Ind., United States of America)). Protein concentrations were quantified using the Biorad method (Bradford, 1976). 50 μg protein was loaded into each well of an 8% sodium dodecyl […]-polyacrylamide gel electrophoresis (SDS-PAGE) gel and separated by electrophoresis. The proteins were subsequently transferred onto 0.45 μm nitrocellulose membranes. Membranes were blocked by incubation for 2 hours at room temperature in phosphate buffered saline-Triton (PBST: 0.9% NaCl, 0.3% Triton X-100, pH 7.4) containing 10% nonfat dry milk.
The presence of Akt protein on the membrane was determined as follows. The membranes were incubated with a 1:1000 dilution of rabbit antibody directed against either phosphorylated (Ser473) or non-phosphorylated human Akt overnight at 4° C. Rabbit antibodies were obtained from Cell Signaling Technology, Beverly, Mass., United States of America. The blots were then washed with PBST to remove unbound rabbit antibodies. The washed blots were then incubated for 1 hour at room temperature with a donkey anti-rabbit IgG secondary antibody (Amersham Biosciences, Piscataway, N.J., United States of America) diluted 1:1000 in PBST. The blots were again washed with PBST to remove unbound donkey antibodies. The presences of both phosphorylated and non-phosphorylated human Akt were determined by chemiluminescent detection of donkey anti-rabbit/rabbit anti-human Akt complexes using the ECL™ detection system (Amersham Biosciences) according to the manufacturer's protocol, followed by autoradiography. […]

O=c1cc(N2CCOCC2)oc2c(-c3ccccc3)cccc12 [LY294002, 2-(4-Morpholinyl)-8-phenyl-4H-1-benzopyran-4-one]
total Akt levels (wortmannin 4 nM or LY294002 2 μM): no effect | Akt phosphorylation following irradiation (wortmannin 4 nM or LY294002 2 μM added 30 minutes prior to irradiation, 3 Gy): strong inhibition

— patent US20060084697A1, “Pi3k antagonists as radiosensitizers” (priority 2002, published 2006)
